Test results published in US4107165A, “Tris[tetrahydroisoquinoline] compounds” (Endo Laboratories, priority 1976, dated 1978).
Converted amounts (≈) assume the structure as drawn. Where a name gives a salt, the structure may show the parent alone. Blank lines part the entries; values can stand above or below the compound they belong to.

Experiments:
[1] = tested on: ADP-induced platelet aggregation; test: inhibition of ADP-induced platelet aggregation in platelet rich plasma; type: cell-based; settings: 5 min; human platelet rich plasma, 37° C, five minutes incubation prior to ADP; read-out: ED50 (amount which reduces platelet aggregation by 50%)
Procedure: Another selection of representative compounds within the scope of the present invention, including some listed in the previous table, have been tested for their ability to inhibit platelet aggregation. Citrated whole blood from human volunteers, who had not taken any medicine for the previous week, was centrifuged to obtain platelet rich plasma. On addition of ADP (adenosine diphosphate) to this platelet rich plasma, incubated at 37° C with constant stirring, in an aggregometer, optical density changes can be observed which are caused by platelet aggregation. Thus, the extent of ADP-induced platelet aggregation is determined for each sample of blood used. Compounds to be tested were incubated for five minutes prior to the addition of ADP. The ED50 of a compound is that amount, in γ/ml, which reduces platelet aggregation by 50% under the above conditions.

[2] = tested on: whole blood clot; test: whole blood clot lysis method (fibrinolytic activity), blood from rats given compound intraperitoneally; type: in vivo; settings: Rattus norvegicus, ip, 4 h, intraperitoneal, blood diluted 1:10, clotted with thrombin, 37° C, four hours, read-out: ED50 (dose which causes lysis of 50% of the clot)
Procedure: Certain representative compounds within the scope of the present invention have been tested for fibrinolytic activity by the whole blood clot lysis method, as modified from the procedure of Billimoria et al.^1 In this method, blood from rats given a fibrinolytic compound intraperitoneally is taken and diluted 1:10. A standard amount is clotted with thrombin, incubated at 37° C for four hours, and the amount of clot that has lysed is determined. […] These ED50 values for the various compounds tested are set forth in the following table, each of the compounds being identified by name and by the number of the ensuing example in which its synthesis is described. […] ^1 Billimoria, […]., James, […]., Lancet II, 471 (1959)

[3] = tested on: ADP-induced platelet aggregation and experimental thrombosis; settings: literature; cited from earlier work
[4] = tested on: fibrinolytic activity; settings: prior art; cited from earlier work
[5] = prior art; cited from earlier work

IC50 [1]: < 40 µg/mL
Compound: COc1cc2c(cc1OC)C(CCCCC(CCC1=NCCc3cc(OC)c(OC)cc31)CCC1=NCCc3cc(OC)c(OC)cc31)=NCC2.Cl.Cl.Cl.O.O.O [Example 1.1a, 1,1'-{3-[2-(3,4-dihydro-6,7-dimethoxy-1-isoquinolinyl)ethyl]heptamethylene}bis[3,4-dihydro-6,7-dimethoxyisoquinoline] trihydrochloride trihydrate]

Compound: COc1cc2c(cc1OC)C(CCCC(CCCC(CCCC1NCCc3cc(OC)c(OC)cc31)C1NCCc3cc(OC)c(OC)cc31)C1NCCc3cc(OC)c(OC)cc31)NCC2.Cl.Cl.Cl.Cl.O.O.O.O (centres unmarked) [Example 2.1, 1,1',1",1'"-(1,4,8,11-Undecanetetrayl)tetrakis[1,2,3,4-tetrahydro-6,7-dimethoxyisoquinoline] tetrahydrochloride tetrahydrate]
ED50 [2]: 0.03 mg/kg

Compound: COc1cc2c(cc1OC)C(CCC(CCC(CCC1NCCc3cc(OC)c(OC)cc31)CCC1NCCc3cc(OC)c(OC)cc31)CCC1NCCc3cc(OC)c(OC)cc31)NCC2.Cl.Cl.Cl.Cl.O.O.O.O (centres unmarked) [Example 5.1, 1,1'-{3,6-bis[2-(1,2,3,4-tetrahydro-6,7-dimethoxy-1-isoquinolinyl)ethyl]-octamethylene}bis[1,2,3,4-tetrahydro-6,7-dimethoxyisoquinoline] tetrahydrochloride tetrahydrate]
ED50 [2]: 0.06 mg/kg

Compound: COc1cc2c(cc1OC)C(CCCCC(SCC1NCCc3cc(OC)c(OC)cc31)C1NCCc3cc(OC)c(OC)cc31)NCC2 (centres unmarked) [Example 6.1, 1,1'-[1-[(1,2,3,4-tetrahydro-6,7-dimethoxy-1-isoquinolinylmethyl)thio]pentamethylene]bis[1,2,3,4-tetrahydro-6,7-dimethoxyisoquinoline]]
ED50 [2]: < 0.6 mg/kg

Compound: COc1cc2c(cc1OC)C(CCC(CCC(CC1NCCc3cc(OC)c(OC)cc31)c1ccccc1)CCC1NCCc3cc(OC)c(OC)cc31)NCC2 (centres unmarked) [Example 7.1, 1,1'-{2-phenyl-5-[2-(1,2,3,4-tetrahydro-6,7-dimethoxy-1-isoquinolinyl)ethyl]heptamethylene}bis[1,2,3,4-tetrahydro-6,7-dimethoxyisoquinoline]]
ED50 [2]: < 0.1 mg/kg

IC50 [1]: < 40 µg/mL
Compound: COc1cc2c(cc1OC)C(CCC(CCC1=NCCc3cc(OC)c(OC)cc31)CCC(CC1=NCCc3cc(OC)c(OC)cc31)c1ccccc1)=NCC2.Cl.Cl.Cl.O.O.O (centres unmarked) [Example 7.1a, 1,1'-{5-[2-(3,4-dihydro-6,7-dimethoxy-1-isoquinolinyl)ethyl]-2-phenylheptamethylene}bis[3,4-dihydro-6,7-dimethoxyisoquinoline] trihydrochloride trihydrate]

Compound: COc1cc2c(cc1OC)C(CCC(CCC1NCCc3cc(OC)c(OC)cc31)CCC(C)(C)CC1NCCc3cc(OC)c(OC)cc31)NCC2 (centres unmarked) [Example 8.1, 1,1'-{2,2-dimethyl-5-[2-(1,2,3,4-tetrahydro-6,7-dimethoxy-1-isoquinolinyl)ethyl]heptamethylene}bis[1,2,3,4-tetrahydro-6,7-dimethoxyisoquinoline]]
ED50 [2]: < 0.4 mg/kg

Compound: COc1ccc2c(c1)CCNC2CCCCC(CCC1NCCc2cc(OC)ccc21)CCC1NCCc2cc(OC)ccc21 (centres unmarked) [Example 10.1, 1,1'-{3-[2-(1,2,3,4-tetrahydro-6-methoxy-1-isoquinolinyl)ethyl]heptamethylene}bis[1,2,3,4-tetrahydro-6-methoxyisoquinoline]]
ED50 [2]: 0.5 mg/kg

Compound: COc1cc2c(cc1OC)C(CCCCC(CCCCC(CCCCC1NCCc3cc(OC)c(OC)cc31)C1NCCc3cc(OC)c(OC)cc31)C1NCCc3cc(OC)c(OC)cc31)NCC2 (centres unmarked) [Example 15.1, 1,1',1",1'"-(1,5,10,14-tetradecanetetrayl)tetrakis[1,2,3,4-tetrahydro-6,7-dimethoxyisoquinoline]]
ED50 [2]: 0.04 mg/kg

IC50 [1]: 27 µg/mL
Compound: COc1cc2c(cc1OC)C(CCCCC(CCCCC(CCCCC1=NCCc3cc(OC)c(OC)cc31)C1=NCCc3cc(OC)c(OC)cc31)C1=NCCc3cc(OC)c(OC)cc31)=NCC2.Cl.Cl.Cl.Cl.O.O.O.O (centres unmarked) [Example 15.1a, 1,1',1",1'"-(1,5,10,14-tetradecanetetrayl)tetrakis[3,4-dihydro-6,7-dimethoxyisoquinoline] tetrahydrochloride tetrahydrate]

Compound: COc1cc2c(cc1OC)C(CCCC(CCCCC(CCCC1NCCc3cc(OC)c(OC)cc31)C1NCCc3cc(OC)c(OC)cc31)C1NCCc3cc(OC)c(OC)cc31)NCC2 (centres unmarked) [Example 16.1, 1,1',1",1'"-(1,4,9,12-dodecanetetrayl)tetrakis[1,2,3,4-tetrahydro-6,7-dimethoxyisoquinoline]]
ED50 [2]: 0.03 mg/kg

Compound: COc1cc2c(cc1OC)C(CCOCC(COCCC1NCCc3cc(OC)c(OC)cc31)OCCC1NCCc3cc(OC)c(OC)cc31)NCC2.Cl.Cl.Cl (centres unmarked) [Example 17.1, 1,1',1"-[1,2,3-PROPANETRIYLTRI-(OXYETHYLENE)]TRIS[1,2,3,4-TETRAHYDRO-6,7-DIMETHOXYISOQUINOLINE] TRIHYDROCHLORIDE]
ED50 [2]: 0.8 mg/kg

IC50 [1]: < 40 µg/mL
Compound: COc1cc2c(cc1OC)C(CCOCC(COCCC1=NCCc3cc(OC)c(OC)cc31)OCCC1=NCCc3cc(OC)c(OC)cc31)=NCC2 [Example 17.1a, 1,1',1"-[1,2,3-propanetriyltri(oxyethylene)]tris[3,4-dihydro-6,7-dimethoxyisoquinoline]]

Compound: COc1cc2c(cc1OC)C(CCN(CCC1NCCc3cc(OC)c(OC)cc31)CCC1NCCc3cc(OC)c(OC)cc31)NCC2 (centres unmarked) [Example 17.3, 1,1',1"-(nitrilotriethylene)tris[1,2,3,4-tetrahydro-6,7-dimethoxyisoquinoline]]
ED50 [2]: 0.7 mg/kg

IC50 [1]: 9 µg/mL (≈ 12.5 µM)
Compound: COc1cc2c(cc1OC)C(CCC(CCC1NCCc3cc(OC)c(OC)cc31)(CCC1NCCc3cc(OC)c(OC)cc31)[N+](=O)[O-])NCC2 (centres unmarked) [Example 18.1, 1,1'-{3-nitro-3-[2-(1,2,3,4-tetrahydro-6,7-dimethoxy-1-isoquinolinyl)ethyl]pentamethylene}bis[1,2,3,4-tetrahydro-6,7-dimethoxyisoquinoline]]
ED50 [2]: < 0.6 mg/kg

IC50 [1]: 6 µg/mL
Compound: COc1cc2c(cc1OC)C(CCC(CCC1=NCCc3cc(OC)c(OC)cc31)(CCC1=NCCc3cc(OC)c(OC)cc31)[N+](=O)[O-])=NCC2.Cl.Cl.Cl [Example 18.1a, 1,1'-{3-[2-(3,4-dihydro-6,7-dimethoxy-1-isoquinolinyl)ethyl] -3-nitropentamethylene}bis[3,4-dihydro-6,7-dimethoxyisoquinoline] trihydrochloride]

Compound: COc1cc2c(cc1OC)C(CCCC(CCCC1NCCc3cc(OC)c(OC)cc31)C1NCCc3cc(OC)c(OC)cc31)NCC2.Cl.Cl.Cl.O.O.O (centres unmarked) [Example 19.1, 1,1',1"-(1,4,7-HEPTANETRIYL)TRIS[1,2,3,4-TETRAHYDRO-6,7-DIMETHOXYISOQUINOLINE] TRIHYDROCHLORIDE TRIHYDRATE]
ED50 [2]: 0.03 mg/kg

IC50 [1]: < 40 µg/mL
Compound: COc1cc2c(cc1OC)C(CCCC(CCCC1=NCCc3cc(OC)c(OC)cc31)C1=NCCc3cc(OC)c(OC)cc31)=NCC2 [Example 19.1a, 1,1',1"-(1,4,7-heptanetriyl)tris[3,4-dihydro-6,7-dimethoxyisoquinoline]]

Compound: COc1cc2c(cc1OC)[C@H](CCCC[C@H]1NCCc3cc(OC)c(OC)cc31)NCC2 [bisobrin dihydrochloride, 1,1'-tetramethylenebis[1,2,3,4-tetrahydro-6,7-dimethoxyisoquinoline], reference compound]
ED50 [2]: 0.5 mg/kg

IC50 [1]: 270 µg/mL (≈ 535 µM)
Compound: OCCN(CCO)c1nc(N2CCCCC2)c2nc(N(CCO)CCO)nc(N3CCCCC3)c2n1 [dipyridamole, 2,2',2",2'"-[(4,8-dipiperidinopyrimido[5,4-d]pyrimidine-2,6-diyl)dinitrilo]tetraethanol, reference compound]
effect against ADP-induced platelet aggregation and experimental thrombosis [3]: generally recognized as being effective against ADP-induced platelet aggregation and experimental thrombosis

Compound: CNC[C@H](O)c1ccc(O)c(O)c1 [epinephrine]
fibrinolytic activity in vivo [4]: Fibrinolytic activity in vivo can be induced

Compound: NCCc1c[nH]cn1 [histamine]
fibrinolytic activity in vivo [4]: Fibrinolytic activity in vivo can be induced

Compound: O=C(O)c1cccnc1 [nicotinic acid]
fibrinolytic activity in vivo [4]: Fibrinolytic activity in vivo can be induced

Compound: CCCCC1C(=O)N(c2ccccc2)N(c2ccccc2)C1=O [phenylbutazone]
fibrinolytic activity in vivo [4]: Fibrinolytic activity in vivo can be induced

Compound: CCN(CC)CCOC(=O)c1ccc(N)cc1 [procaine]
fibrinolytic activity in vivo [4]: Fibrinolytic activity in vivo can be induced

Compound: NCCc1c[nH]c2ccc(O)cc12 [serotonin]
fibrinolytic activity in vivo [4]: Fibrinolytic activity in vivo can be induced

Compound: Streptokinase: a streptococcal protein, has been used for thrombolysis
side effects in thrombolysis [5]: side effects of pyrogenicity and anaphylactic reactions
